# Entries after “also recorded” stand apart in the source; their conditions may differ.
# Tests used:
# Caspase 3/7 in PAECs = experiment: Caspase-Glo 3/7 apoptosis assay; assay type: cell-based, human
# Protocol: (§1) Assays were conducted according to the manufacturer's instructions and as previously described(E1,E9).
# (§2) Quantified area=% of cells that show nuclear γH2AX staining quantified with automated software (white nuclei=positive stain, grey nuclei=background stain). […] FIGS. 9G-9H, MTT proliferation assay in Enzastaurin-treated (0.5-50 M) in PASMC and PAEC, respectively. (n=3). FIGS. 9I-9J, MTT proliferation assay in Enzastaurin-treated (5 M) siFHIT and siBMPR2 transfected PASMC compared to Ntsi control, respectively. (n=3).
# (§3) As a cumulative viability measurement, we quantified caspase3/7 activity, using the luminescent Caspase-Glo®3/7 assay(36) and DNA damage, using histone H2AX phosphorylation by immunofluorescence and quantification as nuclear area staining (%) by confocal microscopy(34, 35, 37). […] PAEC proliferation was assessed via an MTT proliferation assay and hemocytometer cell counts(36).
# [1] = system: SUGEN5416/Hypoxia/Normoxia rats; experiment: SUGEN5416/Hypoxia/Normoxia rat model of experimental PH; assay type: in vivo
# Protocol: Experimental PAH was induced in male Sasco Sprague Dawley rats by subcutaneous injection of 20 mg/kg body weight SU5416. […] Echocardiography was performed to assess development of RV hypertrophy and Ejection Fraction. Right Ventricular (RV) Systolic Pressure was measured through right jugular vein catheterization and RV hypertrophy was assessed by the weight ratio of the RV to left ventricle+septum. Vessel loss and muscularization of lung vessels were visualized by MOVAT pentachrome stain. […] FIG. 4F, Representative MOVAT lung histology. Fhit homozygous (−/−) mice were obtained from Kay F. Huebner (Ohio State University). Bmpr2+/− mice were a gift from Marlene Rabinovitch (Stanford University). Adult wildtype C57BL/6 mice, Bmpr2+/− or Fhit−/− mice at 8-10 weeks of age were housed in chronic hypoxia (10% O2) for 3 weeks, followed by a recovery period of 4 weeks in normoxia (21% O2). […] Development of experimental PH was induced in adult Sprague Dawley rats (8 weeks old, 180-220 g) through a subcutaneous dose of the VEGFR-2 inhibitor SUGEN5416 (20 mg/kg body weight), followed by exposure to chronic hypoxia (10% O2) for 3 weeks and normoxia for 5 weeks (21% O2), as previously described(12). […] Right Ventricular (RV) Systolic Pressure was measured through right jugular vein catheterization, and RV hypertrophy (RVH) was assessed by the weight ratio of the RV to left ventricle and septum (LV+S). Murine and rat lung tissue was fixed in paraformaldehyde (PFA) for 48 hours and preserved in EtOH. Paraffin embedded lung slides were stained with a Movat pentachrome stain (Histo-Tec, Hayward, Calif.), where vessel loss and muscularization of pulmonary vessels was visualized by light microscopy. Fluorescent immunocytochemistry on lung sections was performed on deparaffinized (Histoclear II, National Diagnostics) tissue sections with primary antibodies for von-Willebrand factor (vWF) and alpha smooth muscle actin (αSMA) following antigen-retrieval. Human PAH lung tissue was stained for anti-BMPR2 (Ab130206, Abcam) and anti-FHIT (kind gift of Kay F. Huebner, Ohio State University). PFA-fixed paraffin-embedded heart tissue was stained with trichrome staining (Histo-Tec, Hayward, Calif.) to visualize fibrotic transformation. Sprague Dawley rats, were subcutaneously injected with 20 mg/kg SUGEN5416 once and housed in chronic hypoxia (10%, 3 weeks), followed by 5 weeks in normoxia as previously described(41). […] Hemodynamic assessment of the animals (echocardiography, right heart catheter) was performed before sacrifice and tissue collection. […] Experimental PH was induced in male Sprague Dawley rats by subcutaneous injection of 20 mg/kg body weight SU5416. […] FIG. 11F, Representative MOVAT lung histology, highlighting large pulmonary vessels.
# PAEC [2] = experiment: MTT proliferation assay in PAEC; assay type: cell-based, human; conditions: Enzastaurin 0.5-50 M as printed
# Protocol: as §1
# (§4) Quantified area=% of cells that show nuclear γH2AX staining quantified with automated software (white nuclei=positive stain, grey nuclei=background stain). […] (n=3). […] (n=3).
# as §3
# PAEC [3] = experiment: Matrigel tube formation assay; assay type: cell-based, human; conditions: FHIT- and BMPR2-deficient PAECs, 15 μM Enzastaurin for 24 hours
# Protocol: as §1, §2
# Loss of FHIT and BMPR2 impaired PAECs tube formation 6 hours after cells were seeded in a Matrigel tube formation assay(12) compared to cells treated with control Ntsi (FIG. 9A, FIG. 9B).
# [4] = system: FHIT−/− C57BL/6 mice in hypoxia; experiment: Hypoxia-induced PH in Fhit−/− mice; assay type: in vivo, mouse
# Protocol: Experimental PAH will be assessed based on Right Ventricular (RV) Systolic Pressure measurements through right jugular vein catheterization and RV hypertrophy was assessed by the weight ratio of the RV to left ventricle+septum. Vessel loss and muscularization of lung vessels will be visualized by MOVAT pentachrome stain or IF staining with αSMA and avWF antibodies.
# Fhit homozygous (−/−) mice were obtained from Kay F. Huebner (Ohio State University). Bmpr2+/− mice were a gift from Marlene Rabinovitch (Stanford University). Adult wildtype C57BL/6 mice, Bmpr2+/− or Fhit−/− mice at 8-10 weeks of age were housed in chronic hypoxia (10% O2) for 3 weeks, followed by a recovery period of 4 weeks in normoxia (21% O2). […] Development of experimental PH was induced in adult Sprague Dawley rats (8 weeks old, 180-220 g) through a subcutaneous dose of the VEGFR-2 inhibitor SUGEN5416 (20 mg/kg body weight), followed by exposure to chronic hypoxia (10% O2) for 3 weeks and normoxia for 5 weeks (21% O2), as previously described(12). […] Right Ventricular (RV) Systolic Pressure was measured through right jugular vein catheterization, and RV hypertrophy (RVH) was assessed by the weight ratio of the RV to left ventricle and septum (LV+S).
# FIGS. 23B-23C, ΔΔCt analysis of mRNA expression in lung tissue.
# PAEC [5] = experiment: γH2AX staining (DNA damage); assay type: cell-based, human; conditions: siBMPR2 and siFHIT PAEC, 10 μM Enzastaurin for 24 hours
# Protocol: as §1, §4, §3
# [6] = 5 mg/kg daily oral gavage for 3 weeks, vs vehicle
# [7] = 5 mg/kg/day oral gavage for 3 weeks, qPCR
# [8] = C57BL/6 FHIT−/− mice, 3 weeks hypoxia, 5 mg/kg daily by osmotic pump, method in future tense
# [9] = Fhit−/− mice, hypoxia, 5 mg/kg/day via mini osmotic pump
smiles,measurement,setting,value
"Cn1cc(C2=C(c3cn(C4CCN(Cc5ccccn5)CC4)c4ccccc34)C(=O)NC2=O)c2ccccc21 [Enzastaurin, 3-(1-methyl-1H-indol-3-yl)-4-[1-[1-(pyridin-2-ylmethyl)piperidin-4-yl]-1H-indol-3-yl]-1H-pyrrole-2,5-dione]",Caspase 3/7-mediated apoptosis in synchronised PAECs,"Caspase 3/7 in PAECs; 24 hours, 5 μM or 15 μM Enzastaurin, 5 μM Ly333531 hydrochloride",decreases
same,Caspase 3/7 luminescence (apoptosis) in siBMPR2 and siFHIT PAEC,"Caspase 3/7 in PAECs; t=48 h post-transfection, 15 μM Enzastaurin",decreased
same,Cardiac output,[1]; 5 mg/kg daily oral gavage,improves
same,Cardiac / RV fibrosis,[1]; [6],reverses; also recorded: potently reduced
same,Full or partial remodeling / muscularization of small and large vessels,[1]; [6],substantially and significantly reversed; also recorded: potently reduced
same,Loss of alveolar wall (AW) and alveolar duct (AD) pulmonary vessels,[1]; [6],substantially and significantly reversed
same,Right ventricle hypertrophy (RVH),[1]; [6],lower; also recorded: potently reduced
same,Vascular occlusion,[1]; [6],reverses; also recorded: nearly entirely reversed; also recorded: significantly less evidence
same,Right ventricle systolic pressure (RVSP),"[1]; 5 mg/kg daily oral gavage for 3 weeks, vs vehicle treated controls with experimental PAH",lower
same,Emphysematous changes (linear intercept analysis of MOVAT lung histology),"[1]; 5 mg/kg daily oral gavage, vs untreated controls",significantly less evidence
same,Reduction of RVSP,[1]; 5 mg/kg/day oral gavage for 3 weeks,over 30 mmHg
same,BMPR2 expression in whole lung,[1]; [7],increased
same,FHIT expression in whole lung,[1]; [7],increased
same,LVEF (%) by Echocardiography,[1]; before and after 3 weeks of 5 mg/kg daily oral gavage,improvement
same,SUGEN5416/Hypoxia/Normoxia-induced lung and RV damage,[1]; low-dose Enzastaurin (5 mg/kg/day),potently reversed
same,PAEC proliferation (MTT),PAEC [2],no increase in PAEC proliferation was detected
same,Defects in tube formation,PAEC [3],fully reversed the defects in tube formation
same,FHIT levels (FIG. 5C),[4]; [8],fails to increase FHIT levels
same,PKC levels (FIG. 5C),[4]; [8],effectively downregulating PKC levels
same,Pulmonary hypertension development (FIG. 5C),[4]; [8],does not protect from pulmonary hypertension development
same,BMPR2 expression in whole lung tissue,[4]; [9],increased
same,FHIT mRNA expression in lung tissue,[4]; [9],unmeasurably low
same,ID1 expression in whole lung tissue,[4]; [9],increased
same,PH,[4]; [9],improved PH
same,RVSP,"[4]; male FHIT−/− mice, 3 weeks hypoxia, 5 mg/kg by mini-osmotic pump, vs Sham control",protects from increased RVSP
same,DNA damage (nuclear γH2AX staining) induced by FHIT or BMPR2-loss,PAEC [5],significantly attenuated

# Source: patent US11413280B2 (The Board of Trustees of the Leland Stanford Junior …, priority 2017, dated 2022)
